Read-outs that look alike come from different tables or passages of the source.
Tested on: HeLa cells
Experiment: Lipofection of HeLa cells with pCMV-luc / Rotifect Plus; transfection efficiency by luciferase reporter assay
Assay type: cell-based
Conditions: for Results in RLU (averages of three tests): inhibitors added 2 hours before and during transfection, luciferase assay after 24 hours; for Results in RLU/μg protein (averages): carried out analogously with Example 1
Protocol: The transfection efficiency was measured indirectly using a luciferase enzyme, which was coded by the inserted nucleic acid. This is a reporter gene system. These are established systems for detecting the transfection efficiency. Thus, the greater the amount of luciferase which can be detected in a culture vessel after lysis of the transfected cells, the greater the transfection efficiency. The amount of luciferase is detected by way of an enzyme substrate reaction in which a light quantum is released. These light quanta can be measured by suitable measurement devices known as luminometers. Since the number of light quanta measured is dependent in particular on the time interval in which the measurement took place, this light quantum amount is also denoted as “relative light units”. For comparative studies, the measurement conditions must therefore be identical. […] In both examples, for the treatment using the IKKe/TBK1 inhibitor and an inhibitor for a nucleic-acid-detecting toll-like receptor a significant improvement can be observed, and also cannot be explained merely by simple addition of the individual rates of increase for TKKe/TBK1 inhibitor and an inhibitor for a nucleic-acid-detecting toll-like receptor. This is thus clearly a synergistic effect. The following was used as general material: • 1. HeLa cells; ATTC CCL-2 • 2. Rotifect Plus, Carl Roth; Cat. No.: CL21.2 • 3. 48-well plates; Cellstar; Greiner BioOne; Cat. No.: 677180 • 4. DMEM; high-glucose; Biowest, w/stable glutamine/sodium pyruvate, Cat. No.: L103-500 • 5. Serum FBS Gold; PAN Biotech; Batch No. P130914: Cat. No.: P40-37500 • 6. pCMV-luc, Plasmid Factory, Cat. No.: PF461 • 7. Luciferase Assay Kit, Promega • 8. Dimethyl sulphoxide (DMSO for molecular biology), Fluka; Cat. No.: 41639 • 9. […] No.: 204001 • 10. […] Fluka; Cat. No.: C6628 • 11. […] TCI: Cat. No.: Q0056 The first embodiment, shown in FIG. 1, relates to lipofection of HeLa cells with a conventional commercial transfection reagent (Rotifect Plus), which were treated with the inhibitor BX795 for IKKe and TBK1 and with chloroquine as an inhibitor for TLR9 before and during the transfection. The lipofection of the HeLa cells was carried out over a 3-day period: […] HeLa cells were seeded into a 48-well plate. A cell count of 1*10^5 cells per well was plated in 250 μl complete DMEM medium (10% FCS). This was followed by incubation in a CO2 incubator (10%) for 24 hours. […] This was followed by incubation in a CO2 incubator (10%) for 24 hours. The efficiency of the transfection was determined using a luciferase assay kit. The assay was carried out in accordance with the manufacturer's instructions. The second embodiment, shown in FIG. 2, relates to lipofection of HeLa cells, which were treated with the inhibitor BX795 for IKKe and TBK1 and with quinacrine as an inhibitor for TLR9 before and during the transfection. The lipofection of the HeLa was carried out analogously with Example 1.

[1] = Example 1, FIG. 1, HeLa cells, BX795 0.5 μM, chloroquine 10 μM
[2] = Example 1, HeLa cells, BX795 0.5 μM, chloroquine 10 μM
[3] = Example 2, FIG. 2, HeLa cells, BX795 0.5 μM, quinacrine 2.5 μM
[4] = Example 2, HeLa cells, BX795 0.5 μM, quinacrine 2.5 μM
[5] = Homo sapiens, HeLa, Example 2, FIG. 2, HeLa cells, BX795 0.5 μM, quinacrine 2.5 μM, read-out: transfection efficiency normalised to transfection without inhibitors (ST = 100%)

Compound | Results in RLU (averages of three tests) [1] | increase over standard transfection [2] | Results in RLU/μg protein (averages) [3] | increase over standard transfection [4] | activity at 0.5 µM (Homo sapiens, HeLa, Example 1, FIG. 1, HeLa cells, BX795 0.5 μM, chloroquine 10 μM, read-out: transfection efficiency normalised to transfection without inhibitors (ST = 100%)) | activity at 0.5 µM [5] | activity at 10 µM (Homo sapiens, HeLa, read-out: transfection efficiency normalised to transfection without inhibitors (ST = 100%)) | activity at 2.5 µM [5]
O=C(NCCCNc1nc(Nc2cccc(NC(=O)N3CCCC3)c2)ncc1I)c1cccs1 [BX795] | 50282 RLU | 256% | 27260 RLU/μg protein | 285% | 356% | 141% | – | –
CCN(CC)CCCC(C)Nc1ccnc2cc(Cl)ccc12 (stereo not drawn) [Chloroquine] | 46817 RLU | 19% | – | – | – | – | 119% | –
CCN(CC)CCCC(C)Nc1c2ccc(Cl)cc2nc2ccc(OC)cc12 (stereo not drawn) [Quinacrine, quinacrine] | – | – | 73924 RLU/μg protein | 41% | – | – | – | 385%
